In publication PMC6150275, “Synthesis and Molecular Modeling Studies of N′-Hydroxyindazolecarboximidamides as Novel Indoleamine 2,3-Dioxygenase 1 (IDO1) Inhibitors” (Molecules : A Journal of Synthetic Chemistry and Natural …, 2017):
“Also recorded” adds a separate entry of the source. Like-named read-outs stand apart in the source and are kept apart here.

Key:
[1] = target: T1, human IDO1 expressing HEK293 recombinant cells (Homo sapiens, UniProt P14902); assay: Cell based assay for anti-IDO1 activity by determination of tryptophan and kynurenine in culture supernatant using LC-MS; details: for IC50: human IDO1-expressing HEK293 cells, doxycycline induced, 24 h, dose-response curve
T1 construct: expressed in transfected cells; host or cells: Flp-In-Rex- HEK293 cells (Invitrogen), pcDNA5/FRT/TO vector, doxycycline-induced
Protocol: All synthesized compounds were evaluated for inhibitory activities against IDO1. For this purpose, we generated human IDO1 gene-expressing HEK293 recombinant cells and used those cells to analyze the inhibitory capacity of the compounds. Briefly, we induced the expression vector system of IDO1 by treating […] cells with doxycycline, and measured both the depletion of L-tryptophan in culture media and the generation of kynurenine in IDO1-overexpressing HEK293 cells by using the LC-MS system upon culture supernatants.
cDNA of human IDO1 gene (provided from Korean UniGene, Daejeon, Korea) was inserted into pcDNA5/FRT/TO expression vector (Invitrogen, Waltham, MA, USA) and transfected into Flp-In-Rex- HEK293 cells (Invitrogen). After transfection, homogenous IDO1 expressing HEK293 cells were selected using hygromycin and confirmed for their IDO1 expression using Western blot.
To analyze anti-IDO1 activity of compounds, human IDO1 expressing HEK293 recombinant cells were seeded in 100 μL of complete MEM media containing 10% FBS in a 96-well plate. After incubation for 48 hours, various concentrations of compounds with 0.2 ng/mL doxycyclin (Sigma Aldrich, St. Louis, MO, USA) was treated and incubated for 24 h. Culture supernatants were collected and prepared for analysis of tryptophan and kynurenine using LC-MS. For preparation of samples for LC-MS analysis, 30 μL of culture supernatant was mixed with 2 μM caffeine containing 270 μL methanol. After centrifugation at 12,000 rpm for 10 min, 100 μL of supernatant was transferred into new 1.5 mL tubes. Distilled water (900 μL) was added into 100 μL of supernatant and vortexed. The concentrations of tryptophan and kynurenine were determined by an LC-MS/MS system consisting of an Agilent 1200 series HPLC system (Agilent Technologies, Santa Clara, CA, USA) with an API 4000 QTRAP hybrid triple quadrupole/linear ion trap mass spectrometer (AB Sciex, Foster City, CA, USA) equipped with a turbo electrospray interface. Chromatographic separation of tryptophan and kynurenine was achieved on a Unison UK-C18 column (100 mm × 2 mm i.d., 3 μm; Imtakt, Kyoto, Japan) with a Security Guard C18 guard column (4 mm × 20 mm i.d.; Phenomenex, Torrance, CA, USA) maintained at 25 °C. Isocratic mode was used to achieve separation of the analytes using mobile phase (acetonitrile with 0.1 formic acid and water with 0.1% formic acid (20:80 v/v) at a flow rate of 300 μL/min for 3 min. The multiple reaction monitoring (MRM) transition was m/z 204.94 → 188.1 for tryptophan and m/z 208.97 → 192.00 for kynurenine under positive-ionization. Optimized values for de-clustering potential, collision energy, entrance potential, and collision-exit potential were 26 V, 15 eV, 9.5 V and 8 V and 21 V, 13 eV, 10 V and 8 V for tryptophan and kynurenine, respectively. The optimized instrument conditions were as follows: ion spray voltage, 5500 V; source temperature, 450 °C; curtain gas, 25 psi; nebulizing gas (GS1), 30 psi; heating gas (GS2), 30 psi. Data analysis was performed using Analyst Software version 1.4.2. (AB Sciex, Foster City, CA, USA).

hIDO1 = target: T2, hIDO1 (Homo sapiens, UniProt P14902); assay: hIDO1 enzymatic assay (BPS Bioscience IDO1 inhibitor screening assay kit); assay type: biochemical; details: for inhibition at 20 µM: 20 µM compound, enzymatic assay
T2 construct: purchased BPS Bioscience (San Diego, CA, USA)
Protocol: To analyze the hIDO1 inhibitory activities of compounds, we used IDO1 inhibitor screening assay kit and followed the protocol provided from BPS Bioscience (San Diego, CA, USA). Briefly, 5 μL of IDO solution was aliquoted into a 384-well plate and treated with 5 μL of compound in buffer at room temperature for 3 h. The data was measured at λ = 320 to 325 nm.

[2] = kynurenine by LC-MS, read-out: HEK293 IC50 Kynurenine Production
[3] = tryptophan by LC-MS, read-out: HEK293 IC50 Tryptophan Depletion

T1 sequence (P14902 whole entry): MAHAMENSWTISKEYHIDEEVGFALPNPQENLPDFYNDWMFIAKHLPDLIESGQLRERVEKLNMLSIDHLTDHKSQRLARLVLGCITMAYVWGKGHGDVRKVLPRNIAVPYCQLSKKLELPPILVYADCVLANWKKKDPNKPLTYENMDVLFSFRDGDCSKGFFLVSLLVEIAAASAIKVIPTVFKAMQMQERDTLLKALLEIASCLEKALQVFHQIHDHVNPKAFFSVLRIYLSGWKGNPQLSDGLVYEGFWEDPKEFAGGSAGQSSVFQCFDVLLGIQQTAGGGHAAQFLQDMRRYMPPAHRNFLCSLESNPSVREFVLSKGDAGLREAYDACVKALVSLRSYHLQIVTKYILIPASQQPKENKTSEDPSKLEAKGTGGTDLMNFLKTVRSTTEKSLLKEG
T2 sequence (P14902 whole entry): as above

SMILES	IDO1 inhibition in cell-based assay (in words) [1]	IC50 [1, 2] [µM]	IC50 [1, 3] [µM]	inhibition at 20 µM (hIDO1) [%]	hIDO1 inhibition in enzymatic assay (in words) (hIDO1)
O/N=C(\Nc1ccc(F)c(Br)c1)c1cccc2cn[nH]c12 [Compound 8a, (Z)-N-(3-Bromo-4-fluorophenyl)-N′-hydroxy-1H-indazole-7-carboximidamide]	most active in this series; also recorded: moderate IDO1 inhibitory activity	2.13	1.76	81	
O/N=C(\Nc1ccc(F)c(Cl)c1)c1cccc2cn[nH]c12 [Compound 8b, (Z)-N-(3-Chloro-4-fluorophenyl)-N′-hydroxy-1H-indazole-7-carboximidamide]		3.14	3.26	79	
O/N=C(\Nc1cccc(Cl)c1)c1cccc2cn[nH]c12 [Compound 8c, (Z)-N-(3-Chlorophenyl)-N′-hydroxy-1H-indazole-7-carboximidamide]		4.89	4.95	77	
O/N=C(\Nc1ccc(F)cc1)c1cccc2cn[nH]c12 [Compound 8d, (Z)-N-(4-Fluorophenyl)-N′-hydroxy-1H-indazole-7-carboximidamide]		> 10	> 10		
O/N=C(\Nc1cc(F)ccc1F)c1cccc2cn[nH]c12 [Compound 8e, (Z)-N-(2,5-Difluorophenyl)-N′-hydroxy-1H-indazole-7-carboximidamide]		> 10	> 10		
CC(=O)c1cccc(N/C(=N\O)c2cccc3cn[nH]c23)c1 [Compound 8f, (Z)-N-(3-Acetylphenyl)-N′-hydroxy-1H-indazole-7-carboximidamide]		> 10	> 10		
Cc1cccc(N/C(=N\O)c2cccc3cn[nH]c23)c1 [Compound 8g, (Z)-N′-Hydroxy-N-(m-tolyl)-1H-indazole-7-carboximidamide]		> 10	> 10		
Cc1cc(N/C(=N\O)c2cccc3cn[nH]c23)ccc1Cl [Compound 8h, (Z)-N-(4-Chloro-3-methylphenyl)-N′-hydroxy-1H-indazole-7-carboximidamide]		> 10	> 10		
COc1ccc(N/C(=N\O)c2cccc3cn[nH]c23)cc1Cl [Compound 8i, (Z)-N-(3-Chloro-4-methoxyphenyl)-N′-hydroxy-1H-indazole-7-carboximidamide]		> 10	> 10		
O/N=C(\Nc1ccccc1)c1cccc2cn[nH]c12 [Compound 8j, (Z)-N′-Hydroxy-N-phenyl-1H-indazole-7-carboximidamide]		> 10	> 10		
O/N=C(\Nc1ccc(Cl)cc1)c1cccc2cn[nH]c12 [Compound 8k, (Z)-N-(4-Chlorophenyl)-N′-hydroxy-1H-indazole-7-carboximidamide]		> 10	> 10		
COc1ccc(N/C(=N\O)c2cccc3cn[nH]c23)cc1 [Compound 8l, (Z)-N′-Hydroxy-N-(4-methoxyphenyl)-1H-indazole-7-carboximidamide]		> 10	> 10		
Cc1ccc(N/C(=N\O)c2cccc3cn[nH]c23)cc1 [Compound 8m, (Z)-N′-Hydroxy-N-(p-tolyl)-1H-indazole-7-carboximidamide]		> 10	> 10		
Cn1ncc2cccc(/C(=N/O)Nc3ccc(F)c(Br)c3)c21 [Compound 12, (Z)-N-(3-Bromo-4-fluorophenyl)-N′-hydroxy-1-methyl-1H-indazole-7-carboximidamide]	did not inhibit IDO1	> 10	> 10	15	did not inhibit IDO1
O/N=C(\Nc1ccc(F)c(Br)c1)c1ccccc1O [Compound 16, (Z)-N-(3-Bromo-4-fluorophenyl)-N′,2-dihydroxybenzimidamide]	moderate inhibitory activity	7.91	7.76		
